{
  "source": "patent US8211463B2",
  "about": "“Use of glycolipids as adjuvants” (Helmholtz-Zentrum Fuer Infektionsforschung GmbH, priority 2006, dated 2012)",
  "key": {"[1]": {"test_system": "spleen cells of immunized mice", "test": "Splenocyte proliferation ([3H]thymidine incorporation) after in vitro restimulation with β-Gal", "type": "in vivo, Balb/c mice", "settings": "i.n., 10 μg glycolipid, restimulation with β-Gal for 4 days", "description": "(§1) Co-administration of β-Gal with 10 μg glycolipids 1, 5 and 6 induced a strong cellular immune responses against the β-Gal antigen in Balb/c mice. Balb/c mice were immunized by the i.n. or s.c. route with β-Gal alone or together with glycolipids 1, 5 and 6 three times at 2-wk intervals. 10 days after the final immunization, the immunized mice were sacrificed. Splenocytes of mice immunized by the i.n. (A) and s.c. (B) route were collected and cultured with different concentrations of the β-Gal-Protein for 4 days. […] Curves represent [^3H]thymidine incorporation (counts per minute, cpm) and Stimulation index (SI) in each group. Each group consists of five mice. Data are representative of three separate experiments.\nas §1, with “with 20 up to 30” for “with 10”, “glycolipids” for “glycolipids 1,”, “represent [3H]thymidine incorpoaration” for “represent [^3H]thymidine incorporation”\nExperimental protocol: Spleens were removed and pooled for analysis of cellular immune responses. Cells were grown in RPMI 1640 supplemented with 10% fetal calf serum, 100 U/ml of penicillin, 50 μg/ml of streptomycin, 5×10^−5 M 2-mercaptoethanol and 1 mM L-glutamine (GIBCO BRL, Karlsruhe, Germany) and maintained at 37° C. in a humidified 5% CO2 atmosphere. Spleen cell suspensions were adjusted to 5×10^6 cells/ml in complete medium, cells were seeded with 100 μl per well in a flat-bottomed 96-well microtiter plate (Nunc) and plates were incubated for 4 days. Unstimulated spleen cells were incubated in the presence of different concentrations of the new adjuvants to analyze the in vitro stimulation capacity of glycolipids 1, 5 or 6, respectively. T cellmediated immune responses were investigated at day 38 by measuring the proliferation of cells recovered from spleens after in vitro restimulation with β-Gal. Said spleen cells were obtained from vaccinated mice—said mice where immunized as described in Example 2—and incubated in the presence of different concentrations of the soluble β-Gal antigen. Each concentration was tested in triplicates. During the final 18 h of culture, 1 μCi of [^3H]thymidine (Amersham International, Freiburg, Germany) was added to each well. Cells were then harvested on paper filters (Filtermat A; Wallac, Freiburg, Germany) by using a cell harvester (Inotech, Wohlen, Switzerland), and the amount of incorporated [^3H]thymidine into the DNA of proliferating cells was determined by a β-scintillation counter (Wallac 1450, Micro-Trilux). The results are expressed as the arithmetic mean of [^3H]thymidine uptake in cpm."}, "[2]": {"test_system": "β-Gal-specific systemic IgG", "test": "β-Gal-specific serum IgG ELISA after i.n. or s.c. immunisation with β-Gal plus glycolipid adjuvant", "type": "in vivo, Balb/c mice", "settings": "day 38", "description": "Co-administration of β-Gal with 10 μg glycolipids 1, 5 and 6 induced β-Gal-specific systemic IgG responses in Balb/c mice. Balb/c mice were immunized by the i.n. or s.c. route with β-Gal alone or together with glycolipids 1, 5 and 6 three times at 2-wk intervals. 10 days after the final immunization, the immunized mice were sacrified. The levels of β-Gal-specific systemic IgG were determined in Sera of mice immunized by the i.n. (A) and s.c. (B) route. […] The parenteral administration of with β-Gal co-administered with glycolipids 1, 5 and 6 doubled the β-Galactosidase-specific IgG titer (>500000) in comparison to animals which were immunized with β-Gal alone. Bars represent mean Ab titer or amount±SE in each group. […]\nBalb/c mice were immunized by the i.n. or s.c. route with β-Gal alone or together with glycolipids 5 and 6 three times at 2-wk intervals. […] The levels of β-Gal-specific systemic IgG were determined in Sera of mice immunized by the i.n. (A) and s.c. (B) route. […]\nExperimental protocol: six-eight weeks-old female BALB/c (H-2d) mice were purchased from Harlan Winkelmann GmbH (Borchen, Germany) and treated in accordance with local and European Community guidelines. […] Endpoint titers were expressed as the reciprocal log 2 of the last dilution, which gave an optical density at 405 nm of 0.1 units above the values of the negative controls after 15 to 30 min of incubation."}},
  "data": [
    {"substance": "β-Gal", "values": [
      {"measurement": "Stimulation index (SI), [3H]thymidine incorporation of spleen cells", "setting": "[1]", "result": "no effect"},
      {"measurement": "β-Galactosidase-specific IgG titer in serum", "setting": "[2]; 10 μg glycolipid + 30 μg β-Gal, three immunisations", "result": "< 1/10000 and very low antibody titers"},
      {"measurement": "β-Galactosidase-specific IgG titer in serum", "setting": "[2]; 20 or 30 μg glycolipid + 30 μg β-Gal", "result": "< 1/10000"}
    ]}
  ]
}
